Series [1] addresses T1, human TGR5 (Homo sapiens, UniProt Q8TDU6).
T1 construct: expressed in transfected cells
T1 sequence (Q8TDU6 1-330): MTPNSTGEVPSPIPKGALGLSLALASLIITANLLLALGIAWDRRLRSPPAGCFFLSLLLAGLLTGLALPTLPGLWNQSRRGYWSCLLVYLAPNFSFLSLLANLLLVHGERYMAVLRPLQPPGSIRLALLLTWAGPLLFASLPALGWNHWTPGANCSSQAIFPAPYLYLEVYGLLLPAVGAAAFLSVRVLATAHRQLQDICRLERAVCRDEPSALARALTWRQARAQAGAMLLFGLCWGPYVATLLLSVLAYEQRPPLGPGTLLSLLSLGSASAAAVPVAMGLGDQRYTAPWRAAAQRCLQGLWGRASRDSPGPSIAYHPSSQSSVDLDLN
Description: cAMP assay, HEK293 cells stably expressing human TGR5. The class given is cell-based. The procedure: The changes in cAMP elicited by these bile acid derivatives was determined after binding to the TGR5. […] HEK293 cells stably expressing human TGR5 were treated with increasing doses of ligand after 6 hours of stimulation, and intracellular cAMP levels were measured by luminescence. […] Data analysis to determine EC50 values was performed with GraphPad Prism software using a cAMP standard curve and sigmoidal dose-response (variable slope) equation based on dose-response curves with tested compounds.

Molecules are shown by their SMILES.

For `C[C@H](C[C@H](C)C(=O)O)[C@H]1CC[C@H]2[C@@H]3CC[C@@H]4C[C@H](O)CC[C@]4(C)[C@H]3CC[C@]12C` [compound 13, 23(S)-Methyl-3α-hydroxy-5β-cholan-24-oic acid], the EC50 in series [1] came out at 210 nM. On the same count and under the same terms, next, `CC[C@H]1[C@H](O)[C@@H]2[C@H](CC[C@]3(C)[C@@H]([C@H](C)C[C@H](C)C(=O)O)CC[C@@H]23)[C@@]2(C)CC[C@@H](O)C[C@@H]12` [compound 24, 3α,7β-Dihydroxy-23(S)-methyl-6α-ethyl-5β-cholan-24-oic acid]: 710 nM.

Turning to `CC[C@@]1(O)CC[C@@]2(C)[C@H](CC[C@@H]3[C@@H]2CC[C@]2(C)[C@@H]([C@H](C)CCC(=O)O)CC[C@@H]32)C1` [compound 26, 3β-Ethyl-3α-hydroxy-LCA], the “TGR5 activity / potency, in words (SAR statements)” value in series [1] (assay not named in b266 and b269, b275 belongs to the cAMP example) is “large loss in potency”.

In the case of `CC[C@H]1C[C@@H]2[C@H](CC[C@]3(C)[C@@H]([C@H](C)C[C@H](C)C(=O)O)CC[C@@H]23)[C@@]2(C)CC[C@@H](O)C[C@@H]12`, the melting point is 137.7 °C.

For orientation: EC50 means the concentration giving half of the maximal effect. Lower therefore signals greater potency. By melting point is commonly meant the temperature of the solid-liquid transition.

(Values after patent US20140206657A1, “BILE ACID ANALOG TGR5 AGONISTS” (City of Hope, priority 2013, published 2014).)
